# Source: ChEMBL document CHEMBL3507680, “University of Dundee, Gates Library screen for HepG2 cell viability”
# Assay: Human HepG2 cell viability assay in 384 well format
# Type: toxicity, cell-based
# Parameters: dose 125 nL, time 70.5 hour; concentration not given beside the values
# Conditions: HepG2 cells, read-out: Inhibition
row,Structure (SMILES),cytotoxicity at 70.5 h
1,Cc1ccc(C)c(Oc2cc(-n3nc(C)c(C#N)c3N)nc(C)n2)c1,-6.07%
2,COc1ccc(C)cc1C(C)NC(=O)Cn1ccc(=O)n(C)c1=O (centres undefined),-1.39%
3,c1cc(C2CC2)n2cnc(C3CN(Cc4nccs4)CCO3)c2c1 (centres undefined),-1.41%
4,CC(C)(C)c1ccn(C2(C(=O)O)CCN(c3ccnc(N)n3)CC2)n1,-3.43%
5,Cc1ccc2c(c1)C(=O)NCC1(CCN(C(=O)c3ccnn3C)CC1)O2,-4.65%
6,C[C@@H]1CN(CCC(=O)NCc2ccccc2Cl)CC[C@@]1(O)C1CCC1,-0.451%
7,CCN(Cc1ccc(CN(C)C)cc1)C(=O)c1ccncc1O,-11.2%
8,CC1CCCN(S(=O)(=O)NCc2ccccc2Cn2cncn2)C1 (centres undefined),-10.6%
9,CCOc1ccc(C(C)NC(=O)N2CCC(C(N)=O)CC2)cc1OC (centres undefined),-10.4%
10,c1ccc2c(c1)C(NC1CCCC1)CC21CCNCC1 (centres undefined),-1.32%
11,Cc1cc(C)nc(Nc2cncc(C3CCCN(S(C)(=O)=O)C3)n2)n1 (centres undefined),33.8%
12,CC(C)S(=O)(=O)N1CCC(c2cc3n(n2)[C@@H](C(F)(F)F)C[C@@H](C)N3)CC1,-7.62%
13,CNc1ncc(CN(C)C(=O)c2ccccc2C2CCNC2)cn1 (centres undefined),1.83%
14,CC(C)N(C(=O)c1ccnc(OCC(F)(F)F)c1)c1cccnc1,-12.7%
15,Cc1occc1C(=O)N1CCCS1(=O)=O,-12%
16,c1cnc(-c2nc(CN3CCCC(N4CCCC4)C3)cs2)nc1 (centres undefined),-3.36%
17,CC(C)C(=O)N1CCOC2(COCCN(c3ncccn3)C2)C1 (centres undefined),-11.8%
18,O=C(c1ccncc1F)N1CC[C@@H]2OC(COCC3CC3)CC[C@@H]21 (some centres undefined),5.27%
19,Cc1cc(CN2CCc3nc(-c4ccncc4)nc(O)c3CC2)c(C)s1,-7.8%
20,CC(=O)N(Cc1ncc(C)o1)C1CCN(Cc2cnc(C)s2)C1 (centres undefined),-6.82%
21,CN1CCc2c(c(COc3cncnc3)nn2CC2CC2)C1,5.89%
22,CN(C(=O)C1CC(=O)N(CCc2ccccc2)C1)c1nccs1 (centres undefined),16.6%
23,O=C(Nc1cccc(-c2cscn2)c1)N1CCC2(CC1)CC(O)CO2 (centres undefined),-11.6%

row,Structure (SMILES),cytotoxicity at 70.5 h
1,CC1CCN(S(=O)(=O)N2CCc3sccc3C2)CC1,45%
2,Cc1cnn(C2CCCN(C(=O)c3cc4nc(C)ccc4o3)C2)c1 (centres undefined),-5.06%
3,Cc1nc2cc(=O)[nH]n2c(C)c1CC(=O)Nc1cnn(C(C)(C)C)c1,-3.02%
4,COCCCN(C)C(=O)c1cccc(Nc2cnccn2)c1,24.1%
5,Nc1ncnc2nc(C3CCN(C(=O)Cc4ccc(F)cc4)C3)ccc12 (centres undefined),-9.46%
6,CC(CNC(=O)N(C)Cc1ccco1)N1CCc2sccc2C1 (centres undefined),4.72%
7,Cc1nc(O)cc(CCNC(=O)c2ccccc2N2CCCC2)n1,27%
8,CCN(Cc1noc(CC(C)C)n1)Cc1ncccc1C(=O)O,-3.41%
9,CCCc1cc(C(=O)N(Cc2cccnc2)C2CCCCC2)[nH]n1,-7.56%
10,CC(c1ccc(F)cc1F)N1CCN(CCC(=O)O)CC1 (centres undefined),-6.34%
11,O=C(c1ccccc1)N1CCC2(CC1)CNc1c(F)cccc12,-7.65%
12,CN1C[C@H]2CN(Cc3cccc(OC(F)(F)F)c3)CCN2C1=O,8.83%
13,CCS(=O)(=O)CCN1CCCC1c1noc(C)n1 (centres undefined),-8.31%
14,Cc1cc(C(=O)N2CCCC(n3cccn3)C2)c(C)n1C1CC1 (centres undefined),-2.54%
15,O=C(NC1(c2nc(C3CC3)no2)CCCCC1)c1cccnc1O,3.05%
16,O=c1c2sccc2nc2n1CCN(Cc1cccs1)CC2,-18.8%
17,Cc1cccc(CN2CCCC3(Cc4ccccc4CNC3=O)C2)n1 (centres undefined),-5.77%
18,c1ccc(-c2nccc(CNCC3CCCN3c3cccnn3)n2)cc1 (centres undefined),39.7%
19,COCCC(=O)NC[C@H]1CC[C@H](C(c2ccccn2)N(C)C)CC1 (some centres undefined),-2.06%
20,Cc1nn(C)c(N2CCOCC2)c1CNCc1nccs1,-6.17%
21,O=C1CCc2ccccc2N1CCCn1cnnn1,-7.93%
22,O=C(CN1CCN(c2ncccn2)[C@@H]2CS(=O)(=O)C[C@@H]21)N1CCCCC1,-1.85%
23,CC(C)N(Cc1ccc(C#N)cc1)C(=O)Nc1ccncc1,-9.08%

row,Structure (SMILES),cytotoxicity at 70.5 h
1,Cn1cc(C2CC(=O)NC23CCN(C(=O)NC2CC2)CC3)cn1 (centres undefined),-6.56%
2,COc1ncccc1CNC(=O)Nc1ccc(N(C)C)nc1,-12.5%
3,O=C(Nc1cccc(CNCc2cccs2)c1)C1CC1,-8.51%
4,Cc1cc(C(=O)N2CCCC3(CCCN3Cc3cccnc3)C2)[nH]n1 (centres undefined),12.8%
5,COc1ccc(CNC2CCN(c3ccccc3)C2)c(OC)c1OC (centres undefined),19.7%
6,CN(C)CCOCC1CN(C(=O)c2cscn2)Cc2ccnn2C1 (centres undefined),-8.28%
7,c1cncc(-c2ncnc3c2CCN(Cc2ccsc2)CC3)c1,19.2%
8,COCC1CN(S(=O)(=O)Cc2ccccc2)Cc2c1cnn2C (centres undefined),-1.14%
9,Cc1oc(CNC(=O)Cc2ccc3ccccc3c2)cc1C(=O)O,5.89%
10,CN(Cc1nc(-c2cccnc2)no1)C(=O)c1c2c(nn1C)CCCC2,-1.52%
11,Cc1cc(C)n(C2CCN(S(=O)(=O)N3CCC(C)CC3)CC2)n1,-3.62%
12,OCC1CCCN1c1cc(N2CCC(OC3CCCC3)CC2)ncn1 (centres undefined),-3.18%
13,Cc1ncsc1C(=O)NC1CCN(Cc2cccnc2)CC1,0.341%
14,CCC(C#N)NC(=O)CCCOc1cccc(C(C)=O)c1 (centres undefined),-11.3%
15,COCC(=O)N1CCCC(C(=O)N(C)CCCc2cnn(C)c2)C1 (centres undefined),1%
16,O=C(NCC1(O)CCSC1)c1ccoc1 (centres undefined),-5.15%
17,Cc1cc(C(=O)NC(C)c2nnn[nH]2)c2ccc(C)c(C)c2n1 (centres undefined),34.8%
18,O=C(C1CCCCC1)N1CCC2(CCCN2CC2CC2)CC1,-2.81%
19,Cc1ncc2c(c1CNC(=O)C1(C)CCCO1)CCNC2 (centres undefined),-7.21%
20,CC(=O)N1CCN(C(=O)C2CCN(c3cccnn3)C2)CC1 (centres undefined),-0.877%
21,Fc1ccc(CCN2CCC(c3nnc(-c4cccnc4)o3)CC2)cc1,16.7%
22,CCn1cnnc1C1CCN(C(=O)c2ccc(Cl)cc2OC)CC1,-9.75%
23,Cc1ccc(F)c(C(=O)N2C[C@@H](C(=O)O)[C@H](c3ccncc3)C2)c1Cl,-8.75%

row,Structure (SMILES),cytotoxicity at 70.5 h
1,COCCc1noc(CN(C)C2CCCN(c3cccnn3)C2)n1 (centres undefined),22.9%
2,Cc1ccccc1-c1noc(-c2ccc(N(C)C3CCOCC3)nc2)n1,-2.11%
3,CC(C)C1CN(S(=O)(=O)Cc2cccc(C#N)c2)CCS1 (centres undefined),-9.85%
4,Cn1cc(CN2CCCC3(CCN3S(C)(=O)=O)C2)cn1 (centres undefined),7.75%
5,CN1C[C@@H](n2cnc(-c3ccccc3)c2-c2nccn2C)C[C@H]1C(=O)O,-11.9%
6,COc1cccc2c1OCC(Cc1cc(C(=O)N3CCCC3)ccn1)C2 (centres undefined),-16.5%
7,COc1ccc(C(O)CNc2c(C#N)c(=O)n(C)c(=O)n2C)cc1 (centres undefined),3.78%
8,C=C(C)COc1ccccc1CN1CCC(C(=O)NCC)C1 (centres undefined),-7.01%
9,Cc1cc2nccc(C3CCCN(C(=O)c4ccccc4F)C3)n2n1 (centres undefined),-1.93%
10,O=C(O)CC(CC(=O)NCc1ccsc1)c1cccs1 (centres undefined),-5.7%
11,N#Cc1ccc(CNC(=O)NC2CCCN(c3ncccn3)C2)cc1 (centres undefined),-9.27%
12,O=C(NCc1cn2c(n1)SCC2)c1ccc(CN2CCCCC2)cc1,2.13%
13,CCOC(=O)c1nc(CC(=O)Nc2ccccc2)no1,-17.6%
14,CCOC(=O)C(C)NC(=O)CCSc1ccc(F)cc1 (centres undefined),-2.94%
15,Cn1cc(Cl)cc1C(=O)N1CCN(CCc2cccs2)CC1,-4.15%
16,CC(C)c1nn(C)c(N(C)C)c1CNC1CCN(CC2CC2)CC1,0.338%
17,Cc1ccc(NC2CCN(C(=O)c3c(C)nn(C)c3Cl)CC2)nn1,-2.32%
18,CC(=O)N1CC2(CCN(Cc3ccc(Cl)cc3)C2)Cc2ccccc21 (centres undefined),5.14%
19,CC(=O)NC1(C(=O)N(C)Cc2c(C)noc2C)CCCCC1,20.8%
20,Cc1nn(C)c(C)c1C1CCCN1Cc1nc(C2CC2)no1 (centres undefined),36.6%
21,COCCCN1Cc2cccc(NC(=O)C(C)(C)C)c2C1,31.1%
22,Cc1cc(NCCS(C)(=O)=O)nc2cc3c(cc12)CCC3,-5.3%
23,COc1ccc(CN2CCC3(CCCNC3)C2)cc1Cn1cccn1 (centres undefined),3.97%

row,Structure (SMILES),cytotoxicity at 70.5 h
1,CC(Cn1ccnc1)NC(=O)N(C)Cc1ccc2c(c1)OCO2 (centres undefined),1.49%
2,c1ccc(-c2nc(CNCCn3cccn3)cs2)cc1,-4.17%
3,O=C(c1cnccn1)N1CCC(Oc2ncccc2Cl)CC1,4.06%
4,CCN(CC(=O)NC(C)C)S(=O)(=O)N1CCCC(C)C1 (centres undefined),-1.39%
5,CCOC(C(=O)N1CCn2c(nnc2C(C)C)C1)c1ccccc1 (centres undefined),19.3%
6,O=S(=O)(c1ccccc1)N1CCC2(CCCN2Cc2cccc(Cl)c2)C1 (centres undefined),-11.2%
7,CCc1n[nH]c(C2CN(C(=O)c3ccc(NC4CC4)nc3)CCO2)n1 (centres undefined),-7.92%
8,O=C(CN1C=Nc2ccccc2S1(=O)=O)NCc1ccccc1,-9.5%
9,Cc1ccc(CN2CCOC3(COCCN(S(C)(=O)=O)C3)C2)o1 (centres undefined),-5.62%
10,O=C(Cc1ccccn1)N1C[C@H]2CCC[C@@]2(COc2ccccn2)C1,6.94%
11,COc1cccc(CN2CCN(C(=O)CN3CCOCC3)CC2)n1,0.577%
12,COc1c(C2CCCN2CC(=O)N(C)c2nccs2)c(C)nn1C (centres undefined),0.589%
13,CC(=O)Nc1cc(-c2cccc(F)c2F)n[nH]1,-5.76%
14,CCOC(=O)CNC(=O)N1CCN(c2ncccn2)CC1,-4.84%
15,COCCN(CCOC)C(=O)c1c[nH]nc1-c1cccc(F)c1,0.751%
16,CCN1CC2(CCC1=O)CCN(C(=O)c1ccc(Cl)cc1O)CC2,-2.93%
17,Cc1cccc(C)c1Oc1ncccc1CNC(=O)C1(C)CCCNC1 (centres undefined),-7.62%
18,CS(=O)(=O)c1cn[nH]c1C1CCCN1C(=O)c1cccnc1 (centres undefined),-2.09%
19,Cc1cccc(NC(=O)C2CCc3ccccc3N2)c1 (centres undefined),-0.623%
20,NC(=O)CN1CC2(CCC1=O)CCN(Cc1cc(F)ccc1Cl)CC2,-11.5%
21,COc1ccsc1C(=O)N1CCCC(n2cncn2)C1 (centres undefined),-2.59%
22,O=C(CNC(=O)c1ccccc1Cl)Nc1nccs1,1.89%
